Assays:
[1] = test system: Lin^−c-Kit^+ BM progenitors; test: F-actin immunofluorescence in Lin−c-Kit+ BM progenitors; assay type: cell-based, murine; details: double-sorted Lin^−c-Kit^+ BM progenitors; CASIN pre-treatment at 5 or 10 μM
Source text: (§1) To shed light on potential roles of CASIN in HSPC mobilization, the effects of CASIN on Cdc42-related cellular functions was studied, including adhesion, migration, and F-actin polymerization of progenitor cells in 32D myeloid progenitors. […] SDF-1α stimulation causes a reorganization of F-actin into a cortical ring around the cells. […] Thirdly, to gain further insight into cellular specificity and efficacy of CASIN, and also to rule out possible toxic effects by CASIN, Cdc42-involved BM progenitor cell functions were examined, including proliferation, adhesion, migration, and F-actin polymerization, in Cdc42^+/+ cells in parallel with Cdc42^−/− cells. In line with additional studies in a Cdc42 conditional knockout mouse model as described herein, Cdc42^−/− LDBM cells have increased CFU-forming progenitors compared to those of Cdc42^+/+.
Cells then were stimulated with 100 ng/ml SDF-1α for 45 secs, and further stained with Rhodamine/Phalloidin for actin and DAPI for nucleus as described herein.

[2] = test system: LT-HSC, ST-HSC, and MPP; test: Example 8 kinetics of BM HSC number, cell cycle and reconstitution; assay type: in vivo, C57Bl/6 mice
Method: To monitor the kinetics of CASIN effects on cell number, proliferation, and cell cycle change of HSCs, four time points post-CASIN-administration are focused on in this part. The determination of the four time points depends on the PD analysis to reflect the kinetics of HSCs from relatively quiescent state through proliferative state back to the quiescent state. In this study, the following time points are used: 0, 24, 48, and 96 hours postdosing as an example. Again C57Bl/6 mice are used here. Three subpopulations of HSC/P are investigated and phenotypically defined by flow cytometry: (1) Long-term reconstituting Flk-2-HSC (LT-HSC) subset (Lin−/c-Kit+/Sca-1+/Thy1.1int/FLK2−) capable of extensive self-renewal; (2) Short-term reconstituting Flk-2int HSC(ST-HSCF) subset (Lin−/c-K1t+/Sca-1+/Thy1.1int/FLK2int), which self-renews for a limited interval; (3) Nonself-renewing Flk-2+ multipotent progenitor (MPPF) subset (Lin−/c-K1t+/Sca-1+/Thy1.1int/FLK2+).
Harvest of PB and BM: At 0, 24, 48, and 96 h post CASIN injection, the mice are sacrificed, and then the marrow is flushed from the femurs and tibias of C57Bl/6 mice and the blood cells are collected by cardiac incision.
Change of the frequency and total number of subpopulations of HSC/Ps in BM and PB: Both PB and BM cells are further prepared for flow cytometry analysis. Then, the frequencies of LT-HSC, ST-HSC, and MPP along the four time points are determined using the combinations of cell surface markers mentioned above phenotypically by flow cytometry. The absolute numbers of different subpopulations of HSC in BM and PB are calculated according to the total cellularity of BM and PB of the mice.
Cell cycle analysis: To characterize the cell cycle status of subpopulations of HSCs following treatment with CASIN, double-sorted cells are stained with Hoechst 33342 and Pyronin Y (H/PY), allowing simultaneous assessment of the fraction of cells with more than 2n DNA content (Hoechst 33342), as well as relative levels of total double-stranded RNA (PY). […]

[3] = test system: human CD34^+ umbilical cord blood cells; test: flow cytometry of F-actin polymerization in human CD34+ HCB cells; assay type: cell-based; details: human CD34^+ HCBs, SDF-1α induced
Method: FIG. 4A. SDF-1α induced F-actin polymerization over time without or with gradient CASIN treatment, determined by MFI using FACS analysis.
To begin to study potential utility of CASIN in human hematopoietic stem cell mobilization, a series of cellular assays were carried out to determine the effects on human CD34^+ umbilical cord blood cells (HCBs). […] The effects of CASIN on human hematopoietic cell mobilization was therefore tested using a well established preclinical in vivo model (NOD/SCID-Hcb) of human hematopoietic function, where fresh CD34^+ hCB cells were transplanted into sub-lethally irradiated NOD/SCIDs by intrafemoral injection, and repopulated and maintained human hematopoietic reconstitution in the bone marrow of NOD/SCID recipient mice (FIG. 9b, FIG. 11) (Larochelle, A. et al. Nat Med 2, 1329-1337 (1996); Bhatia, M., et al. Proc Natl Acad Sci USA 94, 5320-5325 (1997)). Intravenous injections of CASIN were applied when human cells were well engrafted in the NOD/SCID recipients.

[4] = test system: LT-HSCs; test: Example 9 double-labeling of LT-HSC localization in the niche; assay type: in vivo, mice; details: 48 hours or earlier after mobilization
Method: These studies use a double-labeling technique to monitor the localization change of LT-HSCs upon mobilization by CASIN.
AMD3100 and G-CSF induced mobilization are used as positive controls, while the control medium is used as a negative control. DBA/2, PeP3b, and C57Bl/6 mice are used in parallel to test the effects of variable mobilization capacity on the movement of LT-HSCs.
Basically, mice are fed BrdU (0.8 mg/ml) in drinking water for 10 days, followed by a chase period of seventy days, after which only the slow cycling LT-HSCs are found to retain the BrdU-label. At the end of the chase period of BrdU labeling, CASIN, AMD3100, G-CSF, or control is administrated on the mice and 3H-TdR is pulse-labeled 1 h before sacrificing the mice. Mice are sacrificed at different time points post administration of mobilizers or control in order to reflect the kinetic changes of HSC localization upon mobilization. And then bone sections are immunochemically stained with anti-BrdU antibody and alkaline phosphatase-labeled secondary IgG, followed by visualization with red substrate. In the meantime, autoradiography is performed to visualize cell incorporated with 3H-TdR. A cell is considered to be double-labeled if it contains greater than 5 silver grains per nucleus over a bright nuclear pattern of red staining.

[5] = test system: 32D myeloid progenitors; test: transwell migration of 32D progenitors towards SDF1α; assay type: cell-based, murine; details: dose-dependent manner
Source text: as §1

OCCNC1CCCc2c1[nH]c1ccc(-c3ccccc3)cc21 (stereo not shown) [CASIN]
SDF-1α mediated reorganization of F-actin into cortical actin ring [1]: lost their capacities to reorganize F-actin into the cortical actin ring | reconstitution frequency of BM LT-HSCs ([2]; 48 hours post injection, compared to non-treated mice): significantly decreases | cell cycle status of HSC/P subpopulations (H/PY staining) ([2]; after CASIN administration): decreased frequencies of cells in G0 phase | numbers and frequencies of LT-HSC, ST-HSC, and MPP population in BM ([2]; post-CASIN administration): increase dramatically up to 48 h post-CASIN administration | F-actin polymerization [3]: inhibited F-actin polymerization of these human progenitors dose-dependently | number of BrdU-labeled LT-HSC in bone marrow niche [4]: reduced | migration of 32D progenitor cells towards SDF1α gradient [5]: significantly reduced migration

— patent US9433663B2, “Mobilization of hematopoietic stem cells” (Children's Hospital Medical Center, priority 2008, dated 2016)
